Measurements from US20260374750A1, “LIGANDS SPECIFICALLY TARGETING VESICULAR GLUTAMATE TRANSPORTERS FOR SUPER-RESOLUTION IMAGING” (SORBONNE UNIVERSITÉ, priority 2021, published 2026).

System: VGLUTs (GLU vesicular transport)
Test: Vesicular glutamate reuptake test ([3H]-glutamate, synaptic vesicles)
Assay type: biochemical, rat
Conditions: for EC50: vesicular glutamate transport; for potency in words (EC50): based on EC50
Procedure: The EC50 was also determined for several of the compounds of the invention.
The vesicular glutamate reuptake was tested as previously described (Kish and Ueda, 1989; Naito and Ueda, 1985; Pietrancosta et al., 2010) with minor modifications. Aliquots of synaptic vesicles […] (obtained by differential centrifugation of rat cortex) were diluted in a solution containing 4 mM HEPES-KOH, pH 7.4 and 0.32M sucrose. The tested compounds were dissolved in 1% ethanol, 1% DMSO (pH was adjusted to 7.4 with 5% KOH) to initial concentrations comprised between 2 mM and 200 μM. The compounds were then diluted to desired final concentrations in a solution containing 10 mM HEPES-KOH, pH 7.4, 0.32 M sucrose, 4 mM KCl, 4 mM MgSO4 (named TPU). The tested compounds were pre-incubated in a solution containing 3 mM ATP-Mg, 1 mM L-aspartic acid, 100 μM glutamate and 0.4 mM […] and 0.4 μM [3H]-Glutamate (1.547 TBq/mmol). After 4 min at 37 °C, the reuptake reaction was initiated by the addition of rat synaptic vesicles. This mixture was incubated for 10 min at 37 °C before adding ice-cold TPU (3.5 mL) and rapidly filtering it through a membrane filter ([…], Millipore MF reference HAWP02500) using a vacuum collector. The filters were washed five times with 3.5 mL of cold TPU and placed in scintillation vials with a scintillation cocktail (optiphase hisafe 3, reference 1200-437, Perkin Elmer). The radioactivity related to the filters was measured in a Beckman LS 6500 scintillation spectrophotometer. The values obtained in the absence of ATP-Mg or in the presence of Carbonyl [COMPOUND LEFT OUT] 3-chlorophenylhydrazone (CCCP, 50 μM reference Sigma C2759) were used to determine the non-specific activity.

| SMILES | % inhibition of GLU vesicular transport at 20 μM (coumarin-derived compounds) [%] | EC50 (coumarin-derived compounds) [µM] | other results |
| --- | --- | --- | --- |
| O=C(O)c1cc2cc(/N=N/c3ccc(Br)cc3)ccc2oc1=O [LSP9-3160, (E)-6-((4-bromophenyl)diazenyl)-2-oxo-2H-chromene-3-carboxylic Acid] | 14 |  |  |
| COc1cc(/N=N/c2ccc(Br)cc2)cc2cc(C(=O)O)c(=O)oc12 [LSP9-3162] | 42 |  |  |
| COc1cc(Br)ccc1/N=N/c1cc(OC)c2oc(=O)c(C(=O)O)cc2c1 [LSP9-3163] | 9 |  |  |
| COc1cc2oc(=O)c(C(=O)O)cc2cc1/N=N/c1ccc(Br)cc1 [LSP9-3164] | 40 | 30 |  |
| COc1cc2oc(=O)c(C(=O)O)cc2cc1/N=N/c1ccc(-c2ccc(N)cc2)cc1 [LSP9-4089, (E)-6-((4′-aminobiphenyl-4-yl)diazenyl)-7-methoxy-2-oxo-2H-chromene-3-carboxylic Acid] | 35 |  |  |
| COc1cc2oc(=O)c(C(=O)O)cc2cc1/N=N/c1ccccc1 [LSP9-4108, (E)-7-methoxy-2-oxo-6-(phenyldiazenyl)-2H-chromene-3-carboxylic Acid] | 30 | 50 |  |
| O=C(O)c1cc2cc(/N=N/c3ccccc3)ccc2oc1=O [LSP9-4126, (E)-2-oxo-6-(phenyldiazenyl)-2H-chromene-3-carboxylic Acid] | 5 |  |  |
| COc1cc(Br)ccc1/N=N/c1cc2cc(C(=O)O)c(=O)oc2cc1OC [LSP9-4150] | 15 |  |  |
| O=C(O)c1cc2cc(/N=N/c3ccccc3)c(O)cc2oc1=O [LSP9-4153, (E)-7-hydroxy-2-oxo-6-(phenyldiazenyl)-2H-chromene-3-carboxylic Acid] | 12 |  |  |
| O=C(O)c1cc2cc(/N=N/c3ccc(Br)cc3)c(O)cc2oc1=O [LSP9-5096, (E)-6-((4-bromophenyl)diazenyl)-7-hydroxy-2-oxo-2H-chromene-3-carboxylic Acid] | 10 |  |  |
| CCOC(=O)c1cc(C(=O)OCC)c2cc(-c3ccc(-c4ccc(-c5ccc6nc(C(=O)OCC)cc(C(=O)OCC)c6c5)cc4)cc3)ccc2n1 [LSP13-1153-YL153, Tetraethyl 6,6′-(biphenyl-4,4′-diyl)diquinoline-2,4-dicarboxylate] |  |  | % inhibition of GLU vesicular transport at 20 μM (quinoline-derived compounds): 69%; EC50 (quinoline-derived compounds): 12.3 µM |
| O=C(O)c1cc(C(=O)O)c2cc(-c3ccc(-c4ccc(-c5ccc6nc(C(=O)O)cc(C(=O)O)c6c5)cc4)cc3)ccc2n1 [LSP13-1160-YL160, 6,6′-(Biphenyl-4,4′-diyl)diquinoline-2,4-dicarboxylic Acid] |  |  | % inhibition of GLU vesicular transport at 20 μM (quinoline-derived compounds): 100%; EC50 (quinoline-derived compounds): 3.6 µM |
| O=C(O)c1cc(C(=O)O)c2cc(/C=C/c3ccc(-c4ccc(/C=C/c5ccc6nc(C(=O)O)cc(C(=O)O)c6c5)cc4)cc3)ccc2n1 [LSP13-1173-YL173, 6,6′-2,2′-(biphenyl-4,4′-diyl)bis(ethene-2,1-diyl)diquinoline-2,4-dicarboxylic Acid] |  |  | % inhibition of GLU vesicular transport at 20 μM (quinoline-derived compounds): 72%; EC50 (quinoline-derived compounds): 15 µM |
| O=C(O)c1cc2cc(/C=C/c3ccccc3)ccc2oc1=O [LSP16-2074, (E)-2-oxo-6-styryl-2H-chromene-3-carboxylic Acid] | 30 |  |  |
| COc1cc2oc(=O)c(C(=O)O)cc2cc1/C=C/c1ccccc1 [LSP16-2077, (E)-7-methoxy-2-oxo-6-styryl-2H-chromene-3-carboxylic acid] | 30 |  |  |
| CCN(CC)c1cc2oc(=O)c(C(=O)O)cc2cc1C#Cc1ccccc1 [LSP17-1042, 7-(diethylamino)-2-oxo-6-(phenylethynyl)-2H-chromene-3-carboxylic Acid] | 12 |  |  |
| O=C(O)c1cc2cc(C#Cc3ccccc3)ccc2oc1=O [LSP17-1044, 2-oxo-6-(phenylethynyl)-2H-chromene-3-carboxylic Acid] | 30 |  |  |
| COc1cc2oc(=O)c(C(=O)O)cc2cc1C#Cc1ccccc1 [LSP17-1046, 7-methoxy-2-oxo-6-(phenylethynyl)-2H-chromene-3-carboxylic Acid] | 48 | 21 |  |
| O=C(O)c1cc2cc(-n3cc(-c4ccccc4)nn3)ccc2oc1=O [LSP17-1100, 2-oxo-6-(4-phenyl-1H-1,2,3-triazol-1-yl)-2H-chromene-3-carboxylic Acid] | 48 | 23 |  |
| COc1cc2oc(=O)c(C(=O)O)cc2cc1-n1cc(-c2ccccc2)nn1 [LSP17-1116, 7-methoxy-2-oxo-6-(4-phenyl-1H-1,2,3-triazol-1-yl)-2H-chromene-3-carboxylic Acid] | 45 | 25 |  |
| Nc1ccc(-c2ccc(C#Cc3ccc4oc(=O)c(C(=O)O)cc4c3)cc2)cc1 [LSP17-1125, 6-((4′-amino-[1,1′-biphenyl]-4-yl)ethynyl)-2-oxo-2H-chromene-3-carboxylic Acid] | 100 | 5 | potency in words (EC50): effective at a very low concentration |
| CCN(CC)c1cc2oc(=O)c(C(=O)O)cc2cc1C#Cc1ccc(-c2ccc(N)cc2)cc1 [LSP17-1126, 6-((4′-amino-[1,1′-biphenyl]-4-yl)ethynyl)-7-(diethylamino)-2-oxo-2H-chromene-3-carboxylic Acid] | 100 | 5 | potency in words (EC50): effective at a very low concentration |
| COc1cc2oc(=O)c(C(=O)O)cc2cc1C#Cc1ccc(-c2ccc(N)cc2)cc1 [LSP17-1127, 6-((4′-amino-[1,1′-biphenyl]-4-yl)ethynyl)-7-methoxy-2-oxo-2H-chromene-3-carboxylic Acid] | 40 |  |  |
| CCN(CC)c1cc2oc(=O)c(C(=O)O)cc2cc1-n1cc(-c2ccccc2)nn1 [LSP17-1153, 7-(diethylamino)-2-oxo-6-(4-phenyl-1H-1,2,3-triazol-1-yl)-2H-chromene-3-carboxylic Acid] | 62 | 15 |  |
| CCN(CC)c1cc2oc(=O)c(C(=O)O)cc2cc1-n1cc(-c2ccc(-c3ccc(N)cc3)cc2)nn1 [LSP17-1154, 6-(4-(4′-amino-[1,1′-biphenyl]-4-yl)-1H-1,2,3-triazol-1-yl)-7-(diethylamino)-2-oxo-2H-chromene-3-carboxylic Acid] | 50 | 20 |  |
| O=C(O)c1cc2cc(C#Cc3ccccc3)c(O)cc2oc1=O [LSP17-1177, 7-hydroxy-2-oxo-6-(phenylethynyl)-2H-chromene-3-carboxylic Acid] | 20 | 267 |  |
